Measurements: US20240058308A1, “TREATMENT AND PREVENTION OF DRY MACULAR DEGENERATION” (The Regents of the University of Michigan, priority 2021, published 2024)

Columns and labels:
primary RPE cultures = assay: Ketone body production (β-hydroxybutyrate, β-HB) fluorometric assay; type: cell-based, human; settings: 24 hours, apical supernate
Method: After 24 hours of exposure to drugs, supernates were collected and subjected to western blotting for APOE detection and a fluorometric assay for β-HB detection [Ref 51; incorporated by reference in its entirety]. Twenty microliters of apical and basolateral supernates for APOE were mixed with SDS sample buffer and blotted with antibody at a dilution of 1:2000. APOE and β-HB values were normalized to the average value of the vehicle and experimental group within each experimental repeat.
The RPE handles an enormous lipid burden on a daily basis, including OS ingestion from its apical side and lipoprotein particle absorption from its basolateral side. Rather than storing excess lipid, the RPE may choose to degrade or secrete surplus lipids (FIG. 4a). A marker of lipid degradation is the production of KBs, which are secreted by the RPE apically and serve as an energy source for photoreceptors [Refs. 7,8; incorporated by reference in their entireties]. A marker of lipid secretion is the production of the lipoprotein APOE, which is a major component of drusen [Ref. 50; incorporated by reference in its entirety]. It was contemplated that autophagy inducers promote ketogenesis through degradation of ingested lipids, reducing the stimulus for secretion of drusen-promoting APOE.

[1] = system: primary human fetal RPE (hfRPE) culture; assay: Autophagy induction by LC3 puncta formation (immunocytochemistry); type: cell-based; settings: 24 hours exposure
Method: (§1) Cell cultures were exposed to each putative autophagy inducer at a concentration indicated in Table 1 for 24 hours, lysed with 36 μL of SDS sample buffer with β-mercaptoethanol, with 15 μg of lysate loaded on a 4-15% gradient gel followed by transfer to a PVDF membrane. Blots were incubated with 1:1000 of LC3A/B antibody (Cell Signaling Technology; #4108s, RRID:AB_2137703) overnight. Quantifying LC3-II/LC3-I ratio is a well-accepted method for det 306 ermining autophagy induction [Ref. 44; incorporated by reference in its entirety], and this ratio was quantified in a non-saturated, linear range using the Azure c500 Imaging System (Azure Biosystems, Dublin, CA, USA) and a combination of AzureSpot and ImageJ software. The data in FIG. 2A are not normalized, whereas the data in FIGS. 2b and 1c are normalized to the average combined value of the vehicle and drug groups within each experimental repeat. The extreme pigmentation of human fetal cultures, combined with the destruction of the LC3 epitope with melanin bleaching protocols, makes detection of LC3 by microscopy in hfRPE difficult. A range of LC3 staining and puncta quantification protocols specifically adapted to pigmented hfRPE culture were employed [Ref. 43; incorporated by reference in its entirety]. At least five fields of view were randomly chosen and analyzed per experimental replicate for LC3 immunocytochemistry.
Autophagy induction was confirmed by assaying the formation of LC3-positive puncta (autophagosomes) by immunocytochemistry [Ref. 44; incorporated by reference in its entirety]. Puncta formation was quantified in automated/unbiased fashion using a customized macro in the Fiji/ImageJ platform [Ref. 43; incorporated by reference in its entirety].
Autophagy induction was measured by LC3 puncta on immunocytochemistry (standard method for autophagy induction) (FIG. 19). Drugs applied to primary human RPE culture for 24 hours.

RPE from mouse eyecups = assay: Ex vivo mouse eyecup autophagy induction (LC3II/LC3I ratio); settings: 24 hours
Method: FIG. 14. Effect of autophagy positive control Torin on RPE from mouse eyecups (DMSO as control). […] Mouse eyes were enucleated, the anterior segment vitreous, and retina were removed, leaving an eyecup with RPE/choroid exposed. […] RPE/Choroid eyecup was treated with 1 uM Torin1 in our previously established RPE cell culture media for 24 hours. n=4.
FIG. 15. Effect of Flubendazole on RPE from Mouse Eyecups (DMSO as control). Conditions with and without ammonium chloride (NH4Cl) help establish high autophagy flux rates. If true autophagy flux is happening, the LC3II/LC3I ratio should increase further upon addition of NH4Cl, as is the case here. DMSO− and FLBZ−, n=6, FLBZ+ and DMSO+ n=5. Flubendazole tested at 60 uM, lysates collected after 24 hours. Induction did occur in eyecups.
Given the inconsistent results with detecting autophagy induction using intravitreal injection of the positive control, Torin, experiments were conducted to determine whether the lack of responsiveness to intravitreal injections was a drug access issue or whether it was a species or animal vs. culture difference. Additional experiments utilized freshly isolated mouse eyecups with the retina removed to determine whether Torin (and FLBZ) induce autophagy in this context. […] The use of ammonium chloride in these experiments blocks lysosomal degradation.

[2] = system: primary human fetal RPE (hfRPE) culture; assay: Autophagy induction by LC3 lipidation (LC3-II/LC3-I ratio) on Western blot; type: cell-based; settings: 24 hours exposure, vs vehicle (DMSO)
Method: as §1
To test for autophagy induction, lipidation of the core autophagy protein LC3 was measured by mobility shift on Western blots 24 hours after each compound was added to hfRPE cultures [Ref. 44; incorporated by reference in its entirety]. […] Of the more than 30 putative autophagy inducers tested, only five produced an increased ratio of LC3-II/LC3-I, consistent with increased autophagy (FIG. 2a).
Autophagy induction was measured by LC3-II/LC3-I Ratios on Western Blot (standard method for autophagy induction) (FIG. 18A-C). Drugs were applied to primary human RPE culture for 24 hours.

primary hfRPE culture [3] = assay: UAM-induced senescence (β-galactosidase activity); type: cell-based, human
Source text: FIG. 6. FLBZ alleviates UAM-induced senescence and tight-junction disruption. (A) (Top) FLBZ reduces senescence when fed concurrently with oxOS during UAM accumulation. (Bottom) FLBZ is unable to reverse established senescence induced by already accumulated UAM. FLBZ is fed daily together with oxOS for 20 days in a month (top) or after one month of 20 oxOS feedings to induce UAM buildup (bottom). DMSO as vehicle control. Senescence measured by β-galactosidase activity (blue). Scale bar: 50 μm. n=6. […] Left graph n=6, right graph n=12. ns p>0.05, *p<0.05, ***p<0.001.
UAM accumulation and quantification as well as assays on senescence were carried out [Ref. 51; incorporated by reference in its entirety]. UAM granule size was measured with Leica LAS X software using the length of the long axis of the granule ellipse.

primary hfRPE culture [4] = assay: Undigestible autofluorescent material (UAM) accumulation, elimination and granule size after oxOS feedings; type: cell-based, human
[5] = system: primary human fetal RPE (hfRPE) culture; assay: Autophagy flux assay with NH4Cl lysosomal alkalinization; type: cell-based; settings: inducer 22.5 hours, then 25 mM NH4Cl for final 1.5 hours
Method: Cultures were exposed to compounds or vehicle (DMSO) for 24 hours. […] (C) Autophagy flux assays. After application of inducers or vehicle (DMSO) for 22.5 hours, 25 mM of NH4Cl, a lysosomal alkalizing agent, or H2O were added for a final 1.5 hours to inhibit autophagy flux.
Increases in both LC3 lipidation and autophagosome formation could result from downstream blockade of autophagy at the lysosome.

COC(=O)Nc1nc2cc(C(=O)c3ccc(F)cc3)ccc2[nH]1 [FLBZ, Flubendazole]
β-hydroxybutyrate (β-HB) production (primary RPE cultures): increased production | LC3 puncta formation (autophagy induction) [1]: induced autophagy | Autophagy induction in eyecups (LC3II/LC3I ratio) (RPE from mouse eyecups; mouse RPE/choroid eyecup, Torin 1-5 uM, FLBZ 12-60 uM): induces autophagy well | Autophagy flux in eyecups: LC3-II/LC3-I ratio with vs without ammonium chloride (RPE from mouse eyecups; mouse eyecups, FLBZ 60 uM): higher LC3-II/LC3-I ratio with ammonium chloride than without ammonium chloride | LC3-II/LC3-I ratio (autophagy induction) [2]: Induction of autophagy | Senescence, drug after UAM had accumulated (primary hfRPE culture [3]; drug fed after one month of 20 oxOS feedings): cell senescence was not decreased | Senescence, drug cofed with oxOS (primary hfRPE culture [3]; fed daily together with oxOS for 20 days in a month, vs vehicle): less senescence | UAM granule size, drug during oxOS feedings (primary hfRPE culture [4]; concurrent feeding of oxOS and drug): smaller than untreated cultures | UAM accumulation, drug fed concurrently with oxOS (primary hfRPE culture [4]; fed daily with oxOS over a month, FLBZ 12 μM, Torin 1 μM, vs vehicle): significantly less UAM accumulation | UAM granule size, drug after UAM buildup (primary hfRPE culture [4]; twenty drug feedings after UAM accrual): smaller granule size | UAM level, drug fed after UAM had accumulated (primary hfRPE culture [4]; twenty oxOS feedings, wash, then twenty drug feedings over an additional month): significantly lower levels of UAM | Autophagy flux: LC3-II/LC3-I ratio after NH4Cl [5]: induces autophagy flux
